Experimental data: US20180256496A1, “CONTROLLED-RELEASE FORMULATIONS” (Camurus AB, priority 2015, published 2018)

Set-up: species or system dog (beagle)
Details: dog, in vivo, sc
Protocol: The in vivo release profiles of granisetron and buprenorphine after subcutaneous injection of Formulations 7A and 7B (Example 7) in dog (beagle) was evaluated using the doses set out in Table 13. The animals were dosed on Days 1 and 8 with the respective formulation.
A validated bioanalytical method was used for the determination of GRN in dog plasma. The analytical method employed liquid chromatography with tandem mass spectrometric detection. The lower limit of quantification of the analytical method was 0.05 ng/mL. The calibration curve ranged from 0.05 to 50.0 ng/mL. Samples above the upper limit of quantitation were diluted into range using control beagle K2-EDTA plasma.

Question: With `CN1[C@@H]2CCC[C@H]1C[C@@H](NC(=O)c1nn(C)c3ccccc13)C2` [granisetron] as the compound, how does the “dose linearity with respect to exposure (AUC)” value read?
Answer: dose linearity was indicated
